Assay results from patent US12419824B2, “Compounds useful for the treatment and/or care of the skin, hair, nails and/or mucous membranes” (Lubrizol Advanced Materials, Inc., priority 2019, dated 2025).

Key:
Format in all cases: cell-based
[1] = system: Muscle bind like protein 1 (MBNL1); assay: MBNL1 quantification in human dermal fibroblasts by immunofluorescence (Example 8); settings: HDF, 1, 0.5 and 0.01 mg/ml, 24 hours, nuclear fluorescence normalized by nuclei
Protocol: MBNL1 induction by the peptides of the invention is evaluated by an Immunofluorescence assay. The aim of this study is to investigate the capacity of peptide candidates to increase MBNL1 in human dermal fibroblasts (HDF).
HDF (Cascade) are seeded in 96-well plates at a density of 8×10^3 cells/well in Fibroblast Growth Medium (Promocell). After 48 hours incubation, medium is removed and fresh medium with 1, 0.5 and 0.01 mg/ml of test items is added. Treatment is continued for 24 hours and non-treated cells are used as basal control. After 24 hours of treatment, an immunofluorescence is performed. Cells are fixed 15 minutes with 4% Paraformaldehide (Sigma), permeated 15 minutes with 1% Triton X-100 (Sigma) and then blocked with 5% Bovine Serum Albumin (Sigma). Next, primary antibody Anti-MBNL1 Rabbit (Sigma) is added and incubated for 2 hours. After that, secondary antibody Alexa Fluor™ 488 goat anti-rabbit IgG (Life Technologies) is added and incubated for 1 hour. To stain nuclei, Hoechst (Life Technologies) is added and incubated for 10 minutes. Finally, MBNL1 cell nuclei fluorescence intensity and nuclei number are measured by Operetta™ (Perkin Elmer). Fluorescence is normalized by cell nuclei and results are represented respect to basal control.

[2] = system: human muscular skeletal cells (hSKMC); assay: Prevention of TNF-α induced muscle mass loss in human skeletal muscle cells, immunofluorescence (Example 9); settings: 0.5 mg/ml with 20 ng/ml TNFα, 48 hours, myotube diameter threshold 20 μm
Protocol: Myosin heavy chain (MHyC) is used as a morphologic marker of differentiated myotubes allowing the measurement of their diameter, and therefore knowing their degree of mass loss. Tumor necrosis factor α (TNF-α) has been described in the literature as a muscle mass loss inductor.
Muscle mass loss prevention by the peptides of the invention is evaluated by an immunofluorescence assay. The aim of this study is to investigate the capacity of peptide candidates to prevent muscular mass loss in presence of TNF-α in human muscular skeletal cells (hSKMC).
hSKMC (Tebu-Bio) are seeded in 96-well plates at a density of 1.5×10^4 cells/well in Skeletal Muscle Cell Growth Medium (Promocell). After 24 hours incubation, medium is replaced with Skeletal Muscle Cell Differentiation Medium (Promocell) and cells are differentiated for 6 days. After this, fresh differentiation medium with 0.5 mg/ml of test items and 20 ng/ml of TNFα (Sigma) is added. Treatment is continued for 48 hours and non-treated cells are used as basal control and 20 ng/ml TNFα treated cells are used as a muscle mass loss control. […] Finally, myotube diameter is determined by imaging MHyC staining by Operetta™ (Perkin Elmer). Percentage of mass loss is automatically calculated with Harmony™ (Perkin Elmer) software by classifying myotubes according to their diameter using an atrophic threshold of 20 μm. […]

[3] = system: human muscular skeletal cells (hSKMC); assay: Alleviation (correction) of TNF-α induced muscle mass loss in human skeletal muscle cells, immunofluorescence (Example 10); settings: 0.01 mg/ml after 24 hours of 20 ng/ml TNFα, myotube diameter threshold 20 μm
Protocol: Muscle mass loss correction by the peptides of the invention is evaluated by an immunofluorescence assay. The aim of this study is to investigate the capacity of peptide candidates to correct muscular mass loss after treatment with TNF-α in human muscular skeletal cells (hSKMC). Myosin heavy chain (MHyC) is used as a morphologic marker of differentiated myotubes allowing the measurement of their diameter, and therefore knowing their degree of mass loss. Tumor necrosis factor α (TNF-α) has been described in the literature as a muscle mass loss inductor.
hSKMC (Tebu-Bio) are seeded in 96-well plates at a density of 1.5×10^4 cells/well in Skeletal Muscle Cell Growth Medium (Promocell). After 24 hours incubation, medium is replaced with Skeletal Muscle Cell Differentiation Medium (Promocell) and cells are differentiated for 6 days. After this, muscular cells mass loss is induced by adding fresh differentiation medium with 20 ng/ml TNFα (Sigma). Non-TNFα treated cells are used as basal mass loss control (BC). […] After 24 hours after the second treatment, immunofluorescence is determined. […] Finally, myotube diameter is determined by imaging MHyC staining by Operetta™ (Perkin Elmer). Percentage of mass loss is automatically calculated with Harmony™ (Perkin Elmer) software by classifying myotubes according to their diameter using a mass loss threshold of 20 μm.

[4] = system: human subcutaneous pre-adipocytes; assay: Lipid accumulation in human subcutaneous pre-adipocytes, Adipored staining (Example 13); settings: coculture of young and old pre-adipocytes, 0.01 mg/ml, 12 days
From the text: The aim of this study is to investigate the capacity of peptide candidates to induce lipid accumulation in human subcutaneous adipocytes, and therefore prevent adipocytes senescence. Measurement of lipid accumulation in a coculture of young and old adipose cells indirectly evaluates the inhibition of senescence-associated secretory phenotype (SASP). A pool of old adipose cells has a higher number of senescent cells. When cocultured with young cells, lipid accumulation observed is below the theoretically expected levels due to senescence induction effect of SASP on young adipocytes.
Induction of lipid accumulation by the peptides of the invention is evaluated by lipid fluorescent staining with Adipored® Assay Reagent. Human subcutaneous pre-adipocytes (donors, Cell applications) cells are cocultured in 96-well plates at a density of 4×10^3 cells/well each age in Human Preadipocyte Growth Medium (Sigma). Monoculture of each age are seeded at a density of 8×10^3 cells/well as age lipid accumulation controls. After 24 hours incubation, differentiation of pre-adipocytes into adipocytes is induced by changing medium to fresh Human Preadipocyte Differentiation Medium (Promocell). […] Finally, fluorescence intensity and nuclei number are measured by Operetta™ (Perkin Elmer). Fluorescence is normalized by cell nuclei and results are represented respect to cocultured basal control.

Substance | MBNL1 levels compared to the basal control [1] | muscle mass loss compared to TNF-α treatment (prevention) [2] | muscle mass loss compared to basal control treated with TNF-α (correction) [3] | lipid accumulation compared to basal control and old control [4]
Ac-Asp-Val-Tyr-Lys-NH2 (Ac-DVYK-NH2) [PEP1] | increase MBNL1 levels | prevent mass loss | correct (i.e., reduces) mass loss | increase lipid accumulation in adipocytes
H-Ala-Leu-Lys-Pro-Asn-Thr-NH2 (H-ALKPNT-NH2) [PEP2] | increase MBNL1 levels | prevent mass loss | correct (i.e., reduces) mass loss | increase lipid accumulation in adipocytes
